From publication PMC12699179, “Investigating Metal and Fluorophore Controlled Intracellular Localization in Noble Metal Thiosemicarbazone Complexes” (Chemistry (Weinheim an Der Bergstrasse, Germany), 2025)
Like-named read-outs stand apart in the source and are kept apart here.

Legend:
HeLa cells [1] = experiment: MTT antiproliferative / cell viability assay; type: cell-based; details: for IC50: mean of three ± SD; for in vitro activity compared to its ligand: 72 hours
Method: We investigated the antiproliferative activities of compounds 4‒8 against HeLa cells using the standard 3‐(4,5‐dimethylthiazol‐2‐yl)‐2,5‐diphenyltetrazolium bromide (MTT) assay (Table 2). […]
8. Cell viability studies […]
media. All biological experiments were thus conducted using 5 mM stock solutions in DMSO that were diluted with culture medium to produce a final concentration of 0.5% DMSO for all experiments unless specified otherwise.
Cell viability experiments
HeLa cells were harvested, pelleted by centrifugation, and resuspended in cell culture medium. The MTT assays were carried out in 96 well plates at a starting density of 1500 cells per well in 100 µL of culture medium. The next day, a dilution series of 7 different concentrations was prepared for each evaluated compound. After 24 h of incubation, the cells were treated with 100 µL of culture medium containing the prepared conc entrations of the respective compounds to reach a final volume of 200 µL in each well. As a negative control, one series of cells was treated with the vehicle only (0.5% DMSO). […]
MTT dye (2.5 mg/mL). After a further incubation of 2 h, the medium was aspired off, and 200 µL DMSO was added to solubilize the precipitated formazan dye. The formazan absorption was measured on a BMG LABTECH CLARIOstar Plus plate reader at 550 nm, using a reference wavelength of 620 nm. Using the mean absorbance of each set of identically treated wells, a dose-response curve was produced and normalized to the wells containing untreated cells to allow for plate-to-plate comparison. The dose-response curves were then subjected to non-linear regression analysis performed in Microsoft Excel to determine IC50 values. Data is shown as the mean of three replicate experiments, and error bars represent the standard

HeLa cells [2] = test system: HeLa cells; parameters: method as in PMID 40488845; details: 24 hours incubation, highest tested concentration 15 µM; cited from earlier work
[3] = parameters: method as in PMID 40488845; details: 1H NMR, over 24 hours; cited from earlier work
HeLa cells [4] = experiment: Cellular uptake assay, metal content by ICP-MS; type: cell-based; details: 10 µM, 24 h, whole cell accumulation by ICP-MS
Method: Subsequently, we investigated the uptake of the conjugates 5 and 7 (at 10 µM) by incubating HeLa cells with the respective compounds for 24 hours and analyzing the final metal concentration inside the cells using inductively coupled plasma mass spectrometry (ICP‐MS). […]
HeLa cells were harvested and seeded in 100 mm × 21 mm cell culture dishes at a density of 200,000 cells per dish in 10 mL of growth medium. After 96 hours of incubation, when the cells had reached 90% confluency, the growth medium was aspirated and replaced with fresh medium containing 10 μM of a compound belonging to sets 5 or 7, respectively. The cells were incubated with the compound for 24 h, after which the medium was aspirated, and the cells were washed three times with 10 mL of PBS buffer. Subsequently, the washed cells were […]
trypsinized for 3 min, and the trypsin reaction was halted by the addition of 3 mL growth media.
Cells were suspended in the mixture, and the total cell count was determined using a Bio -Rad TC20 cell counter. The cell suspension was centrifuged at 5000 rpm for 5 minutes, and the supernatant was removed. The cells were then digested using 2 mL of aqua regia (3:1 v/v, 37% HCl and 70% HNO3, trace metal basis quality (Aldrich, purity ≥99.999%)) and sonicated at 60 °C for 16 h. The dissolved samples were then diluted with 13 mL of HPLC-grade water to reach a final volume of 15 mL. The total metal content of the samples was then determined via ICP-MS analysis (Thermo Scientific iCAP RQ, ASX-560) in Ar plasma in KED mode with He as collision gas. Reference to standards was made, and calibration curves were developed using commercial calibration standards (TraceCert®, Merck).
Fluorophore Compound Metal content
Table S3: Whole cell accumulation of compound sets 5 and 7 analyzed using ICP-MS and expressed in terms of total metal content. […]

[5] = Stability in cell culture medium by UV/Vis spectroscopy; type: physicochemical; details: 50 µM, DMEM with 10% fetal bovine serum, over 72 hours
Method: Likewise, the stability of these complexes was shown via UV/Vis spectrophotometry in cell culture medium over 72 hours.^[ [22] ^] The stability of the newly synthesized compounds was investigated similarly. […] However, the absorption profiles remained distinctly different from those of the corresponding free ligands, which was taken as evidence that the Pd(II) metal center remained chelated by the ligand.
(§1) Stability in Cell Culture Medium and Water
(§2) 5 mM stocks of the respective compounds in DMSO were diluted to produce a final concentration of 50 µM in water or Dulbecco's Modified Eagle's Medium (DMEM) containing 10% fetal bovine serum and 1% penicillin + streptomycin , respectively. The stability of the compounds was monitored via UV/Vis spectroscopy by recording the corresponding absorption profiles of the 50 µM solutions and comparing any changes to the profiles over […]

[6] = Lipophilicity, n-octanol/PBS distribution (logD7.2); type: physicochemical; details: n-octanol/PBS distribution at pH 7.2; mean of three measurements ± SD
Text: Having synthesized and assessed the stabilities of the complexes, we moved on to measure their lipophilicities at pH = 7.2 using the n‐octanol/PBS partition coefficient (Table 1).^[ [33], [34] ^] While the complexes were all highly lipophilic, the BODIPY‐conjugated complexes were more lipophilic than their coumarin analogs. In both sets of conjugates, the logD values followed the trend Pd(II) > Pt(II) > Au(III), with the monocationic Au(III) complexes being the least lipophilic.
7. Lipophilicity (logD7.2)
500 mL aliquots of purified octanol and PBS were thoroughly mixed in a 2 L separatory funnel and left overnight to saturate the two phases. For compound sets 5 and 7, 20 μM standard solutions were prepared in PBS-saturated octanol, respectively. 5 mL standard solutions containing the compound in question were then pipetted into 15 mL centrifuge tubes, and a 5 mL aliquot of the octanol-saturated PBS was added. The resulting samples were shaken for 10 min and allowed to rest overnight for 18 hours. The samples were then centrifuged for 30 min (3000 g, 20 °C), and aliquots of the octanol phase were analyzed via UV -Vis spectroscopy.
Experiments were conducted in triplicate. The concentrations of the compounds in the octanol phase were then quantified with respect to their λmax. […]
where A0 = absorbance of 20 μM compound in PBS-saturated octanol

[7] = parameters: method as in PMID 40488845; details: UV/Vis, over 72 hours; cited from earlier work
[8] = Stability in water by UV/Vis spectroscopy; type: physicochemical; details: 50 µM, after 72 hours
Method: In the case of the Au(III) complexes, both the BODIPY conjugated complex 7a and the parent Dp44mT complex 8a ostensibly decomposed in cell culture medium, as their absorption profiles in media lacked the characteristic charge transfer band at λmax ∼440 nm observed in water. […] However, a slight shift in the λmax coupled with a decrease in absorbance was observed (Figure 4D).
as §1, §2

HeLa cells [9] = experiment: Live-cell confocal microscopy, colocalization with organelle trackers; type: cell-based; details: 10 µM, 24 hours, ± standard deviation
Method: The subcellular behavior of the compounds was then assessed using a confocal microscope following incubation with HeLa cells (10 µM) for 6 hours and 24 hours, respectively (Figures S56, S57, and 5, 6). Moreover, we performed colocalization experiments with appropriate commercial organelle tracking dyes. As controls, we used the methyl and ethyl esters of 1 and 2, 1‐OMe and 2‐OEt, respectively. […] Moreover, the Pearson Correlation Coefficients (PCC) between 6 and the commercial lysosome tracker (LysoTracker deep red) channel improved over time from 0.63 to 0.81. Additionally, the distribution was distinct from 2‐OEt, corroborating that the Dp44mT scaffold directed the localization of the conjugates. Therefore, attaching BODIPY had no discernible effect on the lysosomal accumulation of Dp44mT.
Figure S55: Excitation (Exc) and emission (Em) spectra of BODIPY conjugates 6 and 7 at 10 µM in water. For (A) 6 and (B) 7a compounds, λex = 502 nm and λem = 519 nm; Slitwidth: […]; Sensitivity: low and medium, respectively. For (C) 7b and (D) 7c, λex = 519 nm and λem = 519 nm; Slitwidth: […]; Sensitivity: medium […]
collected at the appropriate emission wavelengths. […] The corresponding Pearson's Correlation Coefficients (PCCs) were calculated using Fiji (version 1.54f).[7] […]

[10] = Homo sapiens, 24 hours incubation, read-out: IC50 24 hours
[11] = Homo sapiens, 72 hours incubation, read-out: IC50 72 hours
[12] = 24 hours incubation, read-out: IC50 24 hours
[13] = 72 hours incubation, read-out: IC50 72 hours

In the case of `CN(C)C(=S)NN=C(c1ccccn1)c1cccc(CCNC(=O)CCCNC(=O)c2cc3cc4c5c(c3oc2=O)CCCN5CCC4)n1` [Compound 4], the IC50 (HeLa cells [1]; [10]) is given as > 15 µM, the IC50 (HeLa cells [1]; [11]) is given as 0.8 ± 0.1 µM and the “effect on cell viability after 24 hours” value (HeLa cells [2]) is given as “did not affect cell viability”. For the same molecule, the “stability in DMSO-d6” value [3] was “stable”.
In the case of `CN(C)C1=N[N+]2=C(c3cccc(CCNC(=O)CCCNC(=O)c4cc5cc6c7c(c5oc4=O)CCCN7CCC6)n3)c3cccc[n+]3[Au-]2([Cl])[S]1.F[P-](F)(F)(F)(F)F` (stereo not shown) [Compound 5a], the IC50 (HeLa cells [1]; [12]) is reported as > 15 µM, the “in vitro activity compared to its ligand” value (HeLa cells [1]) is reported as “fourfold lower activity” and the IC50 (HeLa cells [1]; [13]) is reported as 3.1 ± 0.3 µM. For the same molecule, the Metal content (HeLa cells [4]) was 0.032 ± 0.016 pg/cell, the “stability in cell culture medium” value [5] was “similarly decomposed” and the “logD 7.2” value [6] was 0.99 ± 0.02.
For `CN(C)C1=N[N+]2=C(c3cccc(CCNC(=O)CCCNC(=O)c4cc5cc6c7c(c5oc4=O)CCCN7CCC6)n3)c3cccc[n+]3[Pt-2]2([Cl])[S]1` (stereo not shown) [Compound 5b], the IC50 (HeLa cells [1]; [12]) was > 15 µM, the IC50 (HeLa cells [1]; [13]) was 58.2 ± 4.3 µM and the Metal content (HeLa cells [4]) was 0.016 ± 0.005 pg/cell. The “stability in cell culture medium” value [7] was “stable”, the “effect on cell viability after 24 hours” value (HeLa cells [2]) was “did not affect cell viability” and the “stability in DMSO-d6” value [3] was “stable”. The “logD 7.2” value [6] was 1.47 ± 0.03.
In the case of `CC1=CC(C)=[N+]2C1=Cc1ccc(CCC(=O)NCCc3cccc(C(=NNC(=S)N(C)C)c4ccccn4)n3)n1[B-]2(F)F` [Compound 6], the IC50 (HeLa cells [1]; [10]) is reported as > 15 µM and the IC50 (HeLa cells [1]; [11]) is reported as 0.8 ± 0.1 µM.
With `CC1=CC(C)=[N+]2C1=Cc1ccc(CCC(=O)NCCc3cccc(C4=[N+]5N=C(N(C)C)[S][Au-]5([Cl])[n+]5ccccc54)n3)n1[B-]2(F)F.F[P-](F)(F)(F)(F)F` (stereo not shown) [Compound 7a] the IC50 (HeLa cells [1]; [12]) was > 15 µM, the “in vitro activity compared to its ligand” value (HeLa cells [1]) was “comparable to their respective ligands” and the IC50 (HeLa cells [1]; [13]) was 0.6 ± 0.1 µM. For the same molecule, the Metal content (HeLa cells [4]) was 0.035 ± 0.007 pg/cell, the “stability in cell culture medium” value [5] was “decomposed” and the stability in water [8] was “only mild degradation”. For the same molecule, the “logD 7.2” value [6] was 1.53 ± 0.07.
In the case of `CC1=CC(C)=[N+]2C1=Cc1ccc(CCC(=O)NCCc3cccc(C4=[N+]5N=C(N(C)C)[S][Pt-2]5([Cl])[n+]5ccccc54)n3)n1[B-]2(F)F` (stereo not shown) [Compound 7b], the IC50 (HeLa cells [1]; [12]) is reported as > 15 µM, the IC50 (HeLa cells [1]; [13]) is reported as 4.3 ± 0.3 µM and the Metal content (HeLa cells [4]) is reported as 0.013 ± 0.002 pg/cell. The “stability in cell culture medium” value [5] was “remained stable”, the “Pearson Correlation Coefficient (PCC) with ER Tracker” value (HeLa cells [9]) was 0.51 ± 0.01 and the “logD 7.2” value [6] was 1.80 ± 0.04.
With `CN(C)C1=N[N+]2=C(c3ccccn3)c3cccc[n+]3[Au-]2([Cl])[S]1.[Cl][Au-][Cl]` (stereo not shown) [Compound 8a] the IC50 (HeLa cells [1]; [12]) was > 15 µM, the “in vitro activity compared to its ligand” value (HeLa cells [1]) was “comparable to their respective ligands” and the IC50 (HeLa cells [1]; [13]) was 0.009 ± 0.0005 µM. For the same molecule, the “stability in cell culture medium” value [5] was “decomposed” and the stability in water [8] was “only mild degradation”.
For `CN(C)C(=S)NN=C(c1ccccn1)c1ccccn1` [Dp44mT, di‐2‐pyridylketone‐4,4‐dimethyl‐3‐thiosemicarbazone, reference compound], the IC50 (HeLa cells [1]; [10]) is listed as > 15 µM, the IC50 (HeLa cells [1]; [11]) is listed as 0.009 ± 0.0003 µM and the “effect on cell viability after 24 hours” value (HeLa cells [2]) is listed as “did not affect cell viability”.
